Results from patent US20110086096A1, “MODIFIED RELEASE 1- [ (3-HYDROXY-ADAMANT-1-YLAMINO)-ACETYL] -PYRROLIDINE-2 (S) -CARBONITRILE FORMULATION” (priority 2005, published 2011).

Legend:
[1] = Drug substance and tablet retest date; assay type: physicochemical; conditions: drug substance, storage at 25° C.
Experimental: The vildagliptin drug substance (DS) is sensitive to moisture. Very tight packaging is necessary. Current retest date is 30 months with storage at 25° C.
For the CSF 100 mg, 150 mg and 200 mg strengths, the stability data are available up to 12 months at 25° C./60% RH and 30° 60% RH. […] The composition of vildagliptin 150 mg modified release tablets is bracketed by 100 mg and 200 mg strengths. Therefore, the stability of 150 mg tablets is expected to be same as 100 mg and 200 mg strengths. Thus a re-test period similar to that of 100 and 200 mg strengths is applied for 150 mg tablets.

[2] = Water solubility of drug substance; assay type: physicochemical; conditions: heading: water solubility
Text: A once a day MR dosage form is likely to require a significant level of polymer load for retarding drug diffusion. During the development, the applicant has selected monolithic formulation with low risk for dose dumping, eliminating coating technologies in favor of a matrix formulation. After intensive studies on compatibility, ability to retard diffusion pharmacokinetic and pharmacodynamic studies, and regulatory acceptance requirements the applicant narrowed the polymer choice to hydrophilic polymers, especially hydroxpropyl methyl cellulose (HPMC).

retest date [1]: 30 months | solubility [2]: > 125 mg/mL
SMILES: N#C[C@@H]1CCCN1C(=O)CNC12CC3CC(CC(O)(C3)C1)C2 [vildagliptin, 1-[(3-Hydroxy-adamant-1-ylamino)-acetyl]-pyrrolidine-2(S)-carbonitrile]
